{
  "source": "patent US10034915B2",
  "about": "“Small heat shock proteins and active fragments thereof as a therapy for inflammation and ischemia” (The Board of Trustees of the Leland Stanford Junior …, priority 2011, dated 2018)",
  "system": "EAE mice",
  "experiment": "EAE in 129Sv WT mice immunized with MOG35-55/CFA, clinical scoring",
  "type": "in vivo, mouse",
  "conditions": "vs PBS",
  "protocol": "To investigate if the therapeutic efficacy of HSPB5 is a common feature of the whole family of small heat shock proteins, we expressed recombinant HSPB1, HSPB4, and HSPB5. We then treated EAE mice every other day starting at the peak of disease, when clinical paralysis is apparent, with an intraperitoneal (IP) administration of 10 μg of either HSPB1, HSPB4, HSPB5, or PBS as the vehicle control. […] Treating mice in vivo with HSPB1, HSPB4, or HSPB5 led to a reduction in the production of pro-inflammatory cytokines by MOG stimulated splenocytes taken from MOG immunized mice (FIG. 1c). Improvement of the clinical score was dependent on continued dosing of the sHSP. After dosing was stopped, symptoms returned, and paralysis worsened after 96 hours.\nTherapeutic Peptides from HSPB5 in EAE. […] We made a series of overlapping, 15-mer peptide fragments of HSPB5 and treated mice at the peak of disease with 10 μg of each peptide every other day, using HSPB5 as a positive control and PBS as a negative control.\nEAE induction and scoring. Mice were immunized subcutaneously with 100 μL of myelin oligodendrocyte glycoprotein (MOG) peptide 35-55 (2 mg/mL) and Complete Freund's adjuvant (CFA) (4 mg/mL) on Day 0. […] Mice were randomized at the peak of disease into the treatment groups where they received 10 ug/200 μL of sHSP, 1 μg/200 uL of sHSP peptide, or 200 μL of PBS (vehicle) every other day. Mice were scored every day on a clinical scoring system: 0, healthy mouse; 1, limp tail; 2, weak hindlimbs; 3, complete hindlimb paralysis; 4, weak forelimbs and paralyzed hindlimbs; 5, dead.",
  "note": "Entries after “also recorded” stand apart in the source; their conditions may differ.",
  "data": [
    {"substance": "αB-crystallin [HSPB5]", "values": [
      {"measurement": "EAE clinical scores over the course of the whole experiment (area under the curve)", "setting": "10 μg sHSP protein IP every other day from peak of disease", "value": "significantly improved"},
      {"measurement": "clinical paralysis / EAE clinical scores", "setting": "10 μg sHSP protein IP every other day starting at the peak of disease", "value": "significantly ameliorated clinical paralysis; also recorded: therapeutic"}
    ]}
  ]
}
